According to the NIST ThermoML archive (doi:10.1021/je101144k):
± gives the expanded uncertainty stated by the source.

Key:
[1] = wn = mass fraction of the nth substance listed; details: for surface tension liquid-gas: Maximal bubble pressure; for mass density / viscosity: 101 kPa, Liquid; for mass density: Pycnometric method
[2] = molar heat capacity at constant pressure; wn = mass fraction of the nth substance listed; details: 101 kPa, Liquid, Small sample (50 mg) DSC

N[C@@H](CO)C(=O)[O-].[K+] [potassium L-serinate] + O
Details	mass density, [1] [kg/m3]	molar heat capacity at constant pressure, [2] [J/K/mol]	surface tension liquid-gas, [1] [mN/m]	viscosity, [1] [mPa·s]
298.15 K, w1 = 0.072	1034.7 ± 0.9	–	73.2 ± 0.6	1.121 ± 0.034
298.15 K, w1 = 0.143	1068.7 ± 1.1	–	74.1 ± 0.6	1.372 ± 0.039
298.15 K, w1 = 0.286	1137 ± 1.6	–	77.9 ± 0.7	1.913 ± 0.052
298.15 K, w1 = 0.43	1201.2 ± 2.2	–	80.4 ± 0.8	2.757 ± 0.077
298.15 K, w1 = 0.573	1263.5 ± 2.8	–	82.2 ± 0.8	4.202 ± 0.12
303.15 K, w1 = 0.072	1033.1 ± 0.9	74.59 ± 1.7	–	1.032 ± 0.032
303.15 K, w1 = 0.143	1066.7 ± 1.1	76.59 ± 1.9	–	1.261 ± 0.037
303.15 K, w1 = 0.286	1134.4 ± 1.7	80.47 ± 1.9	–	1.736 ± 0.048
303.15 K, w1 = 0.43	1198.8 ± 2.2	88.33 ± 2	–	2.485 ± 0.069
303.15 K, w1 = 0.573	1260.5 ± 2.8	98.9 ± 2.2	–	3.685 ± 0.1
308.15 K, w1 = 0.072	–	75.17 ± 1.7	–	–
308.15 K, w1 = 0.143	–	77.62 ± 1.9	–	–
308.15 K, w1 = 0.286	–	81.19 ± 1.9	–	–
308.15 K, w1 = 0.43	–	88.91 ± 2	–	–
308.15 K, w1 = 0.573	–	99.62 ± 2.2	–	–
313.15 K, w1 = 0.072	1028.8 ± 0.9	75.56 ± 1.7	–	0.87 ± 0.029
313.15 K, w1 = 0.143	1061.9 ± 1.1	78.03 ± 1.9	–	1.043 ± 0.032
313.15 K, w1 = 0.286	1129.1 ± 1.6	81.67 ± 1.9	–	1.402 ± 0.041
313.15 K, w1 = 0.43	1193.1 ± 2.2	89.77 ± 2	–	1.996 ± 0.057
313.15 K, w1 = 0.573	1254.4 ± 2.8	100.35 ± 2.5	–	2.927 ± 0.084
318.15 K, w1 = 0.072	–	76.13 ± 1.7	–	–
318.15 K, w1 = 0.143	–	78.65 ± 1.9	–	–
318.15 K, w1 = 0.286	–	82.15 ± 1.9	–	–
318.15 K, w1 = 0.43	–	90.35 ± 2	–	–
318.15 K, w1 = 0.573	–	101.07 ± 2.5	–	–
323.15 K, w1 = 0.072	1024.6 ± 0.9	76.52 ± 1.7	–	0.73 ± 0.026
323.15 K, w1 = 0.143	1056.9 ± 1.1	79.06 ± 1.9	–	0.896 ± 0.029
323.15 K, w1 = 0.286	1123.8 ± 1.6	82.63 ± 1.9	–	1.14 ± 0.035
323.15 K, w1 = 0.43	1187.5 ± 2.2	91.22 ± 2	–	1.767 ± 0.052
323.15 K, w1 = 0.573	1248.5 ± 2.8	101.43 ± 2.5	–	2.556 ± 0.073
328.15 K, w1 = 0.072	–	76.9 ± 1.7	–	–
328.15 K, w1 = 0.143	–	79.47 ± 1.9	–	–
328.15 K, w1 = 0.286	–	83.35 ± 1.9	–	–
328.15 K, w1 = 0.43	–	91.79 ± 2	–	–
328.15 K, w1 = 0.573	–	102.15 ± 2.5	–	–
333.15 K, w1 = 0.072	1019.1 ± 0.9	77.29 ± 1.7	–	0.645 ± 0.024
333.15 K, w1 = 0.143	1051.5 ± 1.1	80.09 ± 1.9	–	0.806 ± 0.028
333.15 K, w1 = 0.286	1118 ± 1.6	83.83 ± 1.9	–	0.989 ± 0.032
333.15 K, w1 = 0.43	1181.6 ± 2.2	92.37 ± 2	–	1.56 ± 0.047
333.15 K, w1 = 0.573	1242.3 ± 2.8	102.51 ± 2.5	–	2.278 ± 0.066
338.15 K, w1 = 0.072	–	77.67 ± 1.7	–	–
338.15 K, w1 = 0.143	–	80.5 ± 1.9	–	–
338.15 K, w1 = 0.286	–	84.31 ± 1.9	–	–
338.15 K, w1 = 0.43	–	92.95 ± 2	–	–
338.15 K, w1 = 0.573	–	102.87 ± 2.5	–	–
343.15 K, w1 = 0.072	1013.9 ± 1	78.06 ± 1.7	–	0.564 ± 0.023
343.15 K, w1 = 0.143	1046.3 ± 1.1	81.12 ± 1.9	–	0.671 ± 0.025
343.15 K, w1 = 0.286	1112.5 ± 1.6	84.79 ± 1.9	–	0.855 ± 0.029
343.15 K, w1 = 0.43	1175.9 ± 2.2	93.24 ± 2	–	1.423 ± 0.044
343.15 K, w1 = 0.573	1236.3 ± 2.7	103.23 ± 2.5	–	2.063 ± 0.06
348.18 K, w1 = 0.072	–	78.25 ± 1.7	–	–
348.18 K, w1 = 0.143	–	81.53 ± 1.9	–	–
348.18 K, w1 = 0.286	–	85.27 ± 1.9	–	–
348.18 K, w1 = 0.43	–	93.81 ± 2.3	–	–
348.18 K, w1 = 0.573	–	103.23 ± 2.5	–	–
353.15 K, w1 = 0.072	1007.8 ± 1	78.44 ± 1.7	–	0.494 ± 0.022
353.15 K, w1 = 0.143	1039.6 ± 1.1	81.74 ± 1.9	–	0.564 ± 0.023
353.15 K, w1 = 0.286	1106 ± 1.7	85.51 ± 1.9	–	0.732 ± 0.027
353.15 K, w1 = 0.43	1169.6 ± 2.2	94.1 ± 2.3	–	1.255 ± 0.041
353.15 K, w1 = 0.573	1229.6 ± 2.7	104.68 ± 2.5	–	1.919 ± 0.058
